In patent US20070203126A1, “Synergistic Mixtures of O-Phenylphenol and Dazomet” (priority 2002, published 2007):
Where two headings read alike, the source gives them in different places.

Key:
[1] = tested on: artificial bacterial consortium containing approximately equal numbers of six bacterial strains; assay: bacterial growth inhibition dose protocol in synthetic white water (O.D. 650 nm, 4 hours); assay type: cell-based; settings: for Synergy Index: Dazomet & NaOPP, end point 50% inhibition, SI<1 synergism
Procedure: The actives were evaluated in synthetic white water with pH values of 5.5 and 8.0. The materials were tested against an artificial bacterial consortium containing approximately equal numbers of six bacterial strains. […] Two of the strains were Kiebsiella pneumoia (ATCC 13883) and Pseudomonas aeruginosa (ATCC 15442). The other four strains were isolated from papermill systems and have been identified as Curtobacterium flaccumfaciens, Burkhlderia cepacia, Bacillus maroccanus, and Pseudomonas glethei. Each strain was inoculated at 37° C. overnight, then suspended in sterile saline. Equal volumes of each strain were then combined to prepare the consortium. The bacterial consortium was distributed into the wells of a microtiter plate in the presence or absence of various concentrations of the active materials. The microtiter plates were incubated at 37° C. Optical density (O.D.) readings at 650 nm were taken initially (t0) and after time 4 hours (t4) of incubation.
The raw data was converted to “bacterial growth inhibition percentages” according to the following formula: % Inhibition=[(a−b)÷a]·100 […]
a=(O.D. of control at tn)−(O.D. of control at t0) b=(O.D. of treatment at tn)−(O.D. of treatment at t0)
The inhibition values can be plotted versus dosage for each active and the particular blend. […] The synergism index (SI) was calculated by the equations described by F. C. Kull, P. C. Eisman, H. D. Sylwestrowicz, and R. L. Mayer (1961), Applied Microbiology 9, 538-541. The values are based on the amount needed to achieve a specified end point. […] Synergy Index (SI)=(QA÷Qa)+(QB÷Qb) […]
QA=quantity of compound A in mixture, producing the end point
Qa=quantity of compound A1 acting alone, producing the end point
QB=quantity of compound B in mixture, producing the end point
Qb=quantity of compound B1 acting alone, producing the end point
If SI is less than 1, synergism exists; if SI is greater than 1, antagonism exists, if SI is equal to 1, an additive effect exists.

[2] = tested on: mixed inoculum of bacteria; assay: microtiter plate MIC and combination (K value) test in nutrient broth; assay type: cell-based; settings: 24 hours, read-out: MIC RESULTS against mixed inoculum of bacteria
Procedure: EQUIPMENT used for the experiment are as follows: • 1. Incubator capable of maintaining a variable temperature range (25-45 C.); • 2. Samples of each biocide or test compound to be examined; • 3. Microtiter plates—96 well with lid, sterile; • 4. 8-12 channel micropipetting device capable of pipetting 0-250 ul volumes; • 5. Micropipette tips capable of holding up to 250 ul volumes; • 6. Sterile microbiological culture broth. Trypticase Soy Broth (TSB) or Nutrient Broth (NB) is recommended for bacteria and Sabouraud Maltose Broth (SMB) or Sabouraud Dextrose Broth (SDB) is recommended for yeasts and molds. In the case of this particular study the microbiological culture medium was Nutrient Broth at pH 7.0, 8.0 and 9.0; • 7. Pure cultures of microorganisms of choice grown on appropriate agar medium; • 8. Sterile distilled water; • 9. 100 mL volumetric flasks (one for each biocide to be tested); • 10. Sterile 10 mL tubes of Phosphate buffer (Butterfield's buffer pH 7.2+/−0.2). Contains purified water, monobasic potassium phosphate and sodium hydroxide for pH adjustment; • 11. Sterile cotton swabs; • 12. 0.5 MacFarland Turbidity Standard;
Preparation of Bacterial Inocula
The day before testing, perform a streak plate of each organism to be tested on an appropriate agar medium (Trypticase Soy Agar). Organisms tested in this study were.
Wild strain bacteria isolated from previously contaminated industrial systems and which were identified as: Pseudomonas sp., Escherchia coli, Enterobacter sp., Alcaligenes sp. and Alcaligenes faecalis. On the day of the test, use a sterile cotton swab to harvest some of the growth. Place swab into a tube containing 10 mL sterile phosphate buffer. Compare and adjust the turbidity of the organisms in the tube to 1×10^8 cfu/mL using a 0.5 MacFarland Turbidity Standard. Dilute the 10 mL tube into 90 mL of sterile 2× nutrient broth at pH 7.0, 8.0 and 9.0.
The following procedure was used: • 1. Design the layout of the microtiter plates based on the number of organisms to test and the number of biocides and desired concentrations to test. A separate microtiter plate is required for testing each biocide alone, in addition to the combination microtiter plate. • 2. Prepare a working stock solution of each biocide to be tested. For the combination microtiter plate, the working stock solution of Biocide A will be 8× the concentration desired in the first well of the combination microtiter plate. The working stock solution of Biocide B will be 4× the concentration desired in the first well of the combination microtiter plate. For the alone microtiter plates, the working stock solutions of Biocide A and Biocide B will both be 4× the concentration desired in the first well of the single biocide microtiter plates.
Tetrahydro-3-5-dimethyl-2H-1,3-5-thiadiazine-2-thione (Dazomet): (For combination plates) A solution of this product, which is 99% active, was made as follows: […]=8000 ppm active=8000/0.99=8080 ppm, 0.8 g into 100 mL MeOH and sterile diH2O.
o-Phenylphenol (OPP): (For combination plates) Make a solution of this product which is 99% active, 4×125=500 ppm active=500/0.99=505 ppm, 0.05 g into 100 mL MeOH and sterile diH2O. Level to test is 125 ppm.
(For alone plates) A solution was made as follows: 4×4000=16000 ppm active=16000/0.99=16161 ppm, 1.6 into 100 mL MeOH and sterile diH2O. Levels to test are: 4000 ppm, 2000 ppm, 1000 ppm, 500 ppm, 250 ppm, 125 ppm, 62.5 ppm, 31.2 ppm, 15.6 ppm, 7.8 ppm, 3.9 ppm, 1.95 ppm • 3. Place 50 ul of sterile distilled water in all of the rows in columns 1 through 10, and 100 ul of sterile distilled water in all of the rows in columns 11 and 12 of the 96 well combination microtiter plate. Place 100 ul of sterile distilled water in each well of the 96 well alone microtiter plates. • 4. For the combination microtiter plate, place 50 ul of the Biocide A stock solution into all of the rows in column 1 of the combination microtiter plate. • 5. […]

How did the “Synergy Index” value ([1]; pH 5.5) turn out when CN1CSC(=S)N(C)C1 [Dazomet, tetrahydo-3,5-dimethyl-2H-1-3-5-thiadiazine-2-thione] was run?
Its value is 1.00.

What about the “ppm Dazomet” value ([1]; pH 5.5, Dazomet alone or in blend with NaOPP giving 50% inhibition, ppm active) of the same compound?
Its value is 6.176 ppm.

What about the “Synergy Index” value ([1]; pH 8.0) of the same compound?
Its value is 1.00.

And the “Ppm Dazomet” value ([1]; pH 8.0, Dazomet alone or in blend with NaOPP giving 50% inhibition, ppm active)?
The value was 5.34 ppm.

And the MIC ([2]; pH 7.0, biocide alone)?
Its MIC is 2000 µg/mL.

And the MIC ([2]; pH 8.0, biocide alone)?
The MIC was 2000 µg/mL.

And the MIC ([2]; pH 9.0, biocide alone)?
Its MIC is 4000 µg/mL.

For Oc1ccccc1-c1ccccc1 [OPP, o-Phenylphenol], which MIC ([2]; pH 7.0, biocide alone) is on record?
The MIC was 2000 µg/mL.

And the MIC ([2]; pH 8.0, biocide alone)?
Its MIC is 1000 µg/mL.

And the MIC ([2]; pH 9.0, biocide alone)?
Its MIC is 500 µg/mL.
